Results reported in patent US7201899B2, “Materials and methods for management of hyperacute rejection in human xenotransplantation” (BresaGen Limited, priority 1994, dated 2007).

Tests used:
[1] = tested on: pig RBC; experiment: Hemagglutination of pig RBC by human serum: sugar inhibition; format: cell-based; conditions: for Inhibitory Concentration: inhibition of pig RBC hemagglutination by pooled human AB serum; for concentration range inhibiting agglutination (in words): pig RBC agglutination by human serum
Procedure: The methods used to investigate the hemagglutination of pig red blood cells (RBC's) by human serum was adapted from the methods described by Galili, J. Exp. Med. 160: 1579–81 (1984) and Severson, Immunol. 96: 785–789 (1966).
A. Media/Solution Preparation • 1. Human Serum Albumin (HSA) (CSL, Melbourne, Australia) (5 mg/ml) was dissolved in PBS, filter sterilized, and stored at 4° C. • 2. Preparation of sugars: • 1 M stock solutions of sugar were prepared by dissolving the amount indicated in 100 ml of PBS. Sodium azide was added (0.02%) and solutions stored at 4° C.
B. Preparation of Pig RBC'S • 1. Heparinised pig blood (Animal Resources, Clayton, Australia) is centrifuged at 800 RPM for 10 min to pellet the RBC. • 2. The RBC pellet is washed by resuspension in PBS (10 ml) and recentrifugation (repeated 3 times). After the final wash, the RBC pellet is resuspended in 10 ml PBS. • 3. A 0.5% solution of RBC's is prepared by adding 50 ul RBC solution (from step 2, above) to 10 ml PBS containing 0.5 g/100 ml of HSA.
C. Preparation of 96-well Microtitre Plates (Titretek. USA) • 1. Add 25 ul of PBS to each well. • 2. Add 25 ul of pooled human AB serum (CSL, Melbourne, Australia) to column 1 and serially dilute by removing 25 ul from column 1 and adding to column 2, then repeating by sequentially removing and adding 25 ul from and to each well across the plate, finally discarding 25 μl from column 11 and adding no serum to column 12. • 3. Add 25 ul of sugar solution to each row in decreasing concentrations down rows. No sugar solution is added to the final row. • 4. Incubate at 4° C. overnight and then at 37° C. for 30 min. • 5. Add 50 ul of 0.5% pig RBC to each well; vortex and incubate at room temperature for 2 hours. Determine agglutination visually. II. Results

[2] = tested on: PK-1 and PAE's cells; experiment: Antibody staining and FACS analysis of porcine cells; format: binding; conditions: for inhibition of anti-GAL IgM and/or IgG staining of porcine cells by sugar: anti-GAL antibodies pre-incubated with sugar (0.1 M) at 37° C. for 30 min
Procedure: C. Antibody Staining and FACS Analysis • 1) Add 2 ml TED to a 75 cm^2 culture flask containing PK-1 or PAE'S, and incubate at room temperature for 10 min. • 2) Add RPMI plus 10% FCS (5 ml) to neutralize trypsin. • 3) Pellet cells by centrifugation (700 g, 5 min, • 4) Wash cells by resuspension and centrifugation in Hanks Buffer (×2). • 5) Pellet cells by centrifugation (700 g, 5 min, 4° C.). • 6) Resuspend cell pellet in Hanks buffer containing purified anti-GAL antibodies, GAL-depleted serum or GAL-depleted IgG and incubate at 4° C. for 60 min. All antibodies were used undiluted, or diluted 1:2 or 1:4 in Hanks buffer. • 7) Add 1 ml of Hanks Buffer, pellet cells by centrifugation and aspirate off supernatant. • 8) Resuspend pellet in FITC-labelled sheep-anti-human IgG Fab2 or IgM Fab2 (Silenus, Hawthorn, Australia) diluted 1:80 in Hanks buffer. • 9) Incubate for 30 min. at 4° C. • 10) Wash three times with Hanks buffer; resuspend pellet from final wash in 0.5 ml Hanks buffer. • 11) Analyze stained samples using a FACScan II (Becton Dickinson) according to the manufacturer's instructions.
The specificity of the anti-GAL antibody binding to porcine cells was determined by examining the ability of sugars of various structures to inhibit antibody binding. In these competition studies the anti-GAL antibodies were pre-incubated with sugar (0.1 M) at 37° C. for 30 min before adding to the cells.

[3] = tested on: pig kidney, heart and liver sections; experiment: Immunostaining of pig tissues with anti-GAL antibodies; format: binding; conditions: pig renal cortex sections, proximal tubule brush borders; sugar 0.1 M
Procedure: Pig kidney was fixed in formalin and dehydrated before embedding in Paraplast. Pig heart and liver were fixed in paraformaldehyde-lysine-periodate fixative and snap frozen in O.C.T. embedding compound (10.24% w/w polyvinyl alcohol, 4.26% w/w polyethylene glycol, 85.50% w/w nonreactive ingredients; Tissue Tek®, Miles, Inc., Elkhart, Ind., USA). Four μm-thick sections of pig heart and liver and 2 μm-thick sections of kidney were incubated with purified anti-GAL antibodies (undiluted, 1:2 and 1:4) for 60 min. and then incubated with a fluorescein isothiocyanate (FITC)-conjugated sheep anti-human immunoglobulin F(ab′) fragment. (Silenus Laboratories, Hawthorn, Australia) (1:100) for 30 min. or a peroxidase-conjugated rabbit anti-human IgG (Dakopatts, Glostrup, Denmark) (1:50) for 60 min. Control sections were analyzed for autofluorescence, with the secondary antibody alone, or with the anti-GAL-depleted IgG or normal pig serum as the primary antibody. […] The specificity of the anti-GAL antibodies was tested by pre-incubating sections of pig renal cortex with a variety of sugars, including melibiose, lactose, sucrose and glucose at 0.1 M.

SMILES | Inhibitory Concentration [1] | concentration range inhibiting agglutination (in words) [1] | inhibition of anti-GAL IgM and/or IgG staining of porcine cells by sugar [2] | decrease of anti-GAL antibody staining of PAE's (FIG. 1) ([2]; anti-GAL antibody pre-incubated with sugar, versus anti-GAL antibody alone) | inhibition of anti-GAL antibody binding to pig tissue by sugar [3]
O=C[C@H](O)[C@@H](O)[C@@H](O)[C@H](O)CO [Galactose, D(+)galactose] | 0.002 M | μM to mM range | inhibited | approximately 10 fold less | –
OC[C@H]1O[C@H](OC[C@H]2O[C@H](OC[C@H]3O[C@H](O[C@]4(CO)O[C@H](CO)[C@@H](O)[C@@H]4O)[C@H](O)[C@@H](O)[C@@H]3O)[C@H](O)[C@@H](O)[C@H]2O)[C@H](O)[C@@H](O)[C@H]1O [Stachyose, α-D-gal-[1->6]-α-D-Glc-[1->2]-β-D-Fru] | 0.002 M | μM to mM range | inhibited | – | –
OC[C@H]1O[C@@](CO)(O[C@H]2O[C@H](CO)[C@@H](O)[C@H](O)[C@H]2O)[C@@H](O)[C@@H]1O [Sucrose, α-D-Glucopyranosyl β-D-fructofuranoside] | >10^−1M | only inhibitory when very high concentrations were used | – | – | not inhibited
